Molecules are shown by their SMILES.

Data set [1] can be described thus: Log P (Octanol:buffer pH 7.4). The format is physicochemical.
Data set [2] can be described thus: Log P (Cyclohexane:buffer pH 7.4). The class given is physicochemical.
In a further data set the test system is MCF7. Put plainly: Antitumor activity expressed as inhibitory concentration against human breast cell line MCF-7(ER+ve). The class given is functional, cell-based.
The nature of data set [3]: Antitumor activity expressed as inhibitory concentration against human breast cell line MDA 468(ER-ve). The format is functional, cell-based. As to conditions: MDA-MB-468.
Data set [4] can be described thus: Solubility of compound at pH 6. As to conditions: buffer. The class given is physicochemical.
A short description of data set [5]: Solubility of compound at pH 4.2. The format is physicochemical. As to conditions: buffer.
Data set [6] can be described thus: Solubility of compound at pH 7.5. As to conditions: buffer. The format is physicochemical.
The nature of data set [7]: Delta Log P was determined. As to conditions: octanol/water. The class given is physicochemical.
Data set [8] is described as follows: Solubility of compound at pH 9. The format is physicochemical. As to conditions: buffer.
A short description of data set [9]: Solubility of compound at pH 7.1. The format is physicochemical. As to conditions: buffer.
A short description of data set [10]: Solubility of compound at pH 5.4. The format is physicochemical. As to conditions: buffer.

One may read the logD as the decadic logarithm of the distribution of all forms, ionised or not, between an organic phase and buffer at a given pH. `Cc1cc(-c2nc3ccccc3s2)ccc1N`: the logD in [1] came to 3.96; in data set [2], 2.51.

For `Nc1ccc(-c2nc3ccccc3s2)cc1Br`, the logD in [1] is above 3.3; in data set [2], above 2.8.

As to `Nc1ccc(-c2nc3ccccc3s2)cc1Cl`, the logD in data set [1] was above 3.3; in [2], above 3.2.

By IC50 is commonly meant the concentration needed to halve the response being measured. For the molecule `O=S(=O)([O-])Nc1ccc(-c2nc3ccccc3s2)cc1I.[Na+]`, the IC50 with MCF7 is 1800 nM; in data set [3] it was 1900 nM. The values for the logD in [1] and in data set [2] were 1.8 and 1.9, respectively.

Usually solubility stands for the dissolved amount per volume that the medium holds. Take `O=S(=O)([O-])Nc1ccc(-c2nc3ccccc3s2)cc1Cl.[Na+]`: the solubility in data set [4] is 400 µg/mL; in data set [5] it was 500 µg/mL; in data set [6] it was 300 µg/mL; in [8], 700 µg/mL; in data set [9], 300 µg/mL; in data set [10], 300 µg/mL. Also, the IC50 turned out to be 420 nM in the data set with MCF7 and 9000 nM in data set [3]. Also, the logD in data set [1] is 0.02; in data set [2] it was below 2.19. In addition, the “delta Log P” value in data set [7] is above 2.17.

As to `Cc1cc(-c2nc3ccccc3s2)ccc1NS(=O)(=O)[O-].[Na+]`, the half-maximal inhibitory concentration (IC50) amounted to 490 nM in the data set on MCF7 and 720 nM in [3]. For the same molecule, the logD in data set [1] is 0.6; in [2], below 3. Besides, the “delta Log P” value in [7] was above 2.4.

Regarding `Nc1ccc(-c2nc3ccccc3s2)cc1I`, the logD is above 3.3 in data set [1] and above 2.7 in data set [2].

As to `O=S(=O)(O)Nc1ccc(-c2nc3ccccc3s2)cc1`, the values for the IC50 (in the data set with MCF7; in data set [3]) were 3400 nM and 7500 nM, respectively. The logD in data set [1] was 3.4.
